Organism: Rattus norvegicus
Assay: Open TG-GATES - Regimen: Daily Repeat
Format: toxicity, organism-based, Sprague-Dawley
Design: regimen Daily Repeat, gender Male, age 6 weeks
Conditions: in vivo, po, 100 mg/kg, route gavage, dose level Low; for APTT / Bas / Eos / Fbg / Hb / Ht / Lym / MCH / MCHC / MCV / Mono / Neu / PT / Plat / RBC / Ret / WBC: tissue Blood
[1] = 72 h, tissue Kidney, time 3 day
[2] = 72 h, tissue Plasma, time 3 day

CNC(=C[N+](=O)[O-])NCCSCc1ccc(CN(C)C)o1 [RANITIDINE]
TERMINAL_BW (72 h, time 3 day): 232 g
APTT (72 h, time 3 day): 19.5 s
Bas (72 h, time 3 day): 0%
Eos (72 h, time 3 day): 1.4%
Fbg (72 h, time 3 day): 221.4 mg/dL
Hb (72 h, time 3 day): 14 g/dL
Ht (72 h, time 3 day): 40.9%
Lym (72 h, time 3 day): 78.6%
MCH (72 h, time 3 day): 21.7 pg
MCHC (72 h, time 3 day): 34.2%
MCV (72 h, time 3 day): 63.3 fL
Mono (72 h, time 3 day): 2.6%
Neu (72 h, time 3 day): 15.8%
PT (72 h, time 3 day): 11.9 s
Plat (72 h, time 3 day): 129.9 x10_4/uL
RBC (72 h, time 3 day): 646.4 x10_4/ul
Ret (72 h, time 3 day): 5.2%
WBC (72 h, time 3 day): 75.1 x10_2/uL
KIDNEY_L [1]: 1 g
KIDNEY_R [1]: 1 g
KIDNEY_TOTAL [1]: 2 g
LIVER (72 h, tissue Liver, time 3 day): 11.2 g
A/G [2]: 1.6
ALP [2]: 970 IU/L
ALT [2]: 34.6 IU/L
AST [2]: 63.6 IU/L
BUN [2]: 15.6 mg/dL
CRE [2]: 0.4 mg/dL
Ca [2]: 10.8 mg/dL
Cl [2]: 103.8 meq/L
DBIL [2]: 0.086 mg/dL
GLC [2]: 192.8 mg/dL
IP [2]: 7.4 mg/dL
K [2]: 4.1 meq/L
LDH [2]: 185.2 IU/L
Na [2]: 141.4 meq/L
PL [2]: 152.6 mg/dL
RALB [2]: 3.5 g/dL
TBIL [2]: 0.1 mg/dL
TC [2]: 82.2 mg/dL
TG [2]: 80 mg/dL
TP [2]: 5.7 g/dL
gamma-GTP [2]: 1 IU/L
TERMINAL_BW ([…], time 7 day): 264.8 g
TERMINAL_BW ([…], time 14 day): 314.1 g
TERMINAL_BW ([…], time 28 day): 381.6 g
APTT ([…], time 7 day): 19.8 s
Bas ([…], time 7 day): 0%
Eos ([…], time 7 day): 1%
Fbg ([…], time 7 day): 233.2 mg/dL
Hb ([…], time 7 day): 14 g/dL
Ht ([…], time 7 day): 39.9%
Lym ([…], time 7 day): 81.8%
MCH ([…], time 7 day): 21.8 pg
MCHC ([…], time 7 day): 35.2%
MCV ([…], time 7 day): 62.1 fL
Mono ([…], time 7 day): 2.6%
Neu ([…], time 7 day): 13.6%
PT ([…], time 7 day): 12.3 s
Plat ([…], time 7 day): 127.2 x10_4/uL
RBC ([…], time 7 day): 643.2 x10_4/ul
Ret ([…], time 7 day): 5.2%
WBC ([…], time 7 day): 99.9 x10_2/uL
APTT ([…], time 14 day): 19.6 s
Bas ([…], time 14 day): 0%
Eos ([…], time 14 day): 0.8%
Fbg ([…], time 14 day): 243.8 mg/dL
Hb ([…], time 14 day): 14.7 g/dL
Ht ([…], time 14 day): 40.9%
Lym ([…], time 14 day): 78.6%
MCH ([…], time 14 day): 21.7 pg
MCHC ([…], time 14 day): 36%
MCV ([…], time 14 day): 60.4 fL
Mono ([…], time 14 day): 2%
Neu ([…], time 14 day): 16.4%
PT ([…], time 14 day): 11.9 s
Plat ([…], time 14 day): 101 x10_4/uL
RBC ([…], time 14 day): 678 x10_4/ul
Ret ([…], time 14 day): 4%
WBC ([…], time 14 day): 109.6 x10_2/uL
APTT ([…], time 28 day): 20.9 s
Bas ([…], time 28 day): 0.2%
Eos ([…], time 28 day): 1%
Fbg ([…], time 28 day): 228.8 mg/dL
Hb ([…], time 28 day): 15.7 g/dL
Ht ([…], time 28 day): 45.1%

Source: ChEMBL document CHEMBL3885861, “Open TG-GATES”
